Results reported in patent US12351561B2, “Crystalline (2S,4R)-5-(5'-chloro-2'-fluoro-[1,1'-biphenyl]-4-yl)-2-(ethoxymethyl)-4-(3-hydroxyisoxazole-5-carboxamido)-2-methylpentanoic acid and uses thereof” (THERAVANCE BIOPHARMA R&D IP, LLC, priority 2016, dated 2025).
Read-outs that look alike come from different tables or passages of the source.

Legend:
human neprilysin (NEP) = human neprilysin (NEP) (Homo sapiens, UniProt P08473); assay: in vitro human neprilysin inhibitor activity (pKi); type: biochemical
Chain of human neprilysin (NEP) (P08473 whole entry): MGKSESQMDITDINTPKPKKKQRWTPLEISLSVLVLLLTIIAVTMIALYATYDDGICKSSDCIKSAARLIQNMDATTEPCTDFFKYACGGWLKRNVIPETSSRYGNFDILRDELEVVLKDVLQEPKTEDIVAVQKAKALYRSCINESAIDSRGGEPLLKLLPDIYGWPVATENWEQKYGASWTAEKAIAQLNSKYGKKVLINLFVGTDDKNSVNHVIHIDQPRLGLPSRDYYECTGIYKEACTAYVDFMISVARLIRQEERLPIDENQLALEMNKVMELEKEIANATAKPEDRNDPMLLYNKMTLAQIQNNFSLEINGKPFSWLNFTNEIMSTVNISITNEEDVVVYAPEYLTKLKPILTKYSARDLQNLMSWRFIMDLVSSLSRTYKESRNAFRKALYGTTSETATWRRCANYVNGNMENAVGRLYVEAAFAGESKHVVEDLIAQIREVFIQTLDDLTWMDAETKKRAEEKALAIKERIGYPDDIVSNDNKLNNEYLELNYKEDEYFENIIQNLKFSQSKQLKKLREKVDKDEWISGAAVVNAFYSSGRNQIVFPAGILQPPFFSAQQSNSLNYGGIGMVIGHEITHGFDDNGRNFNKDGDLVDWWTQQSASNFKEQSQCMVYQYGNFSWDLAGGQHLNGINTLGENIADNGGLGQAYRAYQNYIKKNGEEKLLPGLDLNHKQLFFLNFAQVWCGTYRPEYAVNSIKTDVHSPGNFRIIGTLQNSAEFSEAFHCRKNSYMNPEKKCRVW
Description: One measure of the ability of a compound to inhibit NEP activity is the inhibition constant (pKi). The pKi value is the negative logarithm to base 10 of the dissociation constant (Ki), which is typically reported in molar units. The compound of the invention has a pKi at NEP≥9.0.
The in vitro-to-in vivo extrapolation of drug behavior in a subject continues to improve (see, e.g., Chiba et al., AAPS J., 2009 June; 11 (2): 262-276). In the present invention, in vitro human neprilysin inhibitor activity was assessed in order to determine neprilysin inhibitory activity of Compound I and crystalline form I′. A threshold of pKi>9.0 was met. However, additional in vivo experiments were further performed in order to more accurately predict the behavior of Compound I and crystalline form I′ in a subject.

[1] = Assay 4: Phase 1 multiple-ascending dose study, renal elimination; type: in vivo; conditions: human, after multiple dosing, Day 1 and Day 14, all subjects
Method: A Phase 1 multiple-ascending dose (MAD) clinical trial of Compound I′ (Form I) was conducted in order to further evaluate the safety, tolerability, pharmacokinetics of Compound I and its metabolite, pharmacodynamics of Compound I, food effect, absolute oral bioavailability and renal elimination of multiple ascending oral doses of Compound I′ in healthy adult and elderly subjects. As discussed below, the reported data confirms the results stemming from the SAD clinical trial.
The Phase 1 study was a double-blind, randomized placebo-controlled multiple ascending dose study in healthy male and female volunteers randomized in a 4:1 ratio. The study enrolled 50 healthy adult (19-55 years old) and elderly (65-80 years old) volunteers over multiple weeks for the ascending-dose portion, which included cohorts (n=10/cohort of 8 active and 2 placebo) administered (1) ascending doses of 50 mg, 100 mg, and 200 mg, (2) a dose of 10 mg studied in parallel with 200 mg for PK/PK, and (3) a dose of 100 mg for one elderly cohort. […] Additionally, renal elimination of Compound I was neglible after multiple dosing, e.g., <1% was observed on Day 1 and Day 14 for all subjects.

[2] = Assay 1: IV/PO pharmacokinetic study in monkeys; type: in vivo, male cynomolgus monkeys; conditions: for bioavailability / AUC(0-t): cynomolgus monkey, plasma; for AUC(0-t): read-out: AUClast Mean; for CLlast Mean: monkey
Method: A monkey PK study was performed with an appropriate mass of Compound I in volume of vehicle (e.g., 5% sodium bicarbonate, 5% dextrose in H2O, pH 7.4, for oral and IV and filtered through a […] PDVF syringe for IV) such that the final concentration was dosed at 1.0 mg/mL for both IV and PO.
Intravenous doses of Compound I were administered through an indwelling catheter in the cephalic vein followed by a saline flush of approximately 3 mL. Intravenous doses were administered at a volume of 1 mL/kg. Oral doses were delivered into the stomach using a syringe and gavage tube followed by a water flush of approximately 10 mL. Oral doses were administered at a volume of 2 mL/kg. Blood samples were collected from each animal at each time point (pre-dose, 0.083 h, 0.25 h, 0.5 h, 1 h, 2 h, 4 h, 6 h, 8 h, 12 h, and 24 h) via the cephalic, femoral, or sphenous vein through […]. All samples were collected into K2EDTA tubes and placed on ice. Samples were processed to plasma by centrifugation (3200 rpm, 10 minutes, 5° C.), and acidified with a final concentration of 2% acetic acid. Aliquots of plasma were transferred to a 96-well plate tubes and stored frozen (−70° C.) prior to bioanalysis.
Plasma concentrations of Compound I were determined by LC/MS/MS. Plasma study samples were vortexed and placed in a 96-well plate. The samples were extracted with 200 μL of acetonitrile with an internal standard. The extract was centrifuged for 10 minutes at 2809 RPM and 50 μL supernatant was mixed with 200 μL 0.2% formic acid in water. Samples (10-15 μL) were injected on a ThermoFisher HyPURITY™ (C18 50×2.1 mm) column with a flow rate of 0.35 mL/min. Mobile phase A consisted of water: acetonitrile: formic acid (95:5:0.1, v:v:v) and Mobile phase B consisted of methanol: acetonitrile: formic acid (50:50:0.1, v:v:v) (dog). Mobile phase A consisted of 0.2% formic acid in water and mobile phase B consisted of 0.2% formic acid in acetonitrile (rat and monkey). Pharmacokinetic parameters of Compound I were determined by non-compartmental analysis (Model 201 and Model 200 for IV and PO administration, respectively) using Phoenix WinNonlin Version 6.3 (Certara, Sunnyvale, CA) and using individual plasma concentration time profiles from 3 animals per treatment group.
Plasma clearance was determined from the intravenous arm of the study, and represents the rate at which plasma is cleared of drug. It is equal to the dose divided by the area under the plasma concentration-time curve. In addition to plasma clearance, it is also essential for an orally administered drug to reach efficacious systemic levels following oral delivery. Oral bioavailability is a measurement of plasma exposures following oral administration relative to exposures following intravenous administration.

[3] = Assay 3: Phase 1 single-ascending dose study, safety and tolerability; type: in vivo, human; conditions: healthy volunteers, single doses up to 600 mg
Method: (§1) A Phase 1 single-ascending dose (SAD) clinical trial of Compound I′ (Form I), which converts to or dissolves to provide its soluble form Compound I in the body, was conducted in order to assess neprilysin inhibition for the treatment of a range of cardiovascular and renal diseases, including, e.g., chronic kidney disease, diabetic nephropathy, acute and chronic heart failure, heart failure with reduced ejection fraction, heart failure with preserved ejection fraction, post-myocardial infarction asymptomatic left ventricular dysfunction (post-MI asymptomatic LVD), subacute heart failure and resistant and isolated systolic hypertension. Safety and tolerability, pharmacokinetic (support for QD/BID dosing and non-renal excretion), pharmacodynamic (test for target engagement biomarkers cGMP and ANP), food effect, and absolute oral bioavailability and renal elimination using a ^14C intravenous microtracer, inter alia, were tested.
The Phase 1 study was a double-blind, randomized placebo-controlled single ascending dose study in healthy male and female volunteers randomized in a 4:1 ratio. The study enrolled 56 healthy volunteers over multiple weeks for the ascending-dose portion, which included cohorts (n=10/cohort of 8 active and 2 placebo) administered single ascending doses of 50 mg, 100 mg, 200 mg, 400 mg and 600 mg. […]

[4] = Assay 3.2: PK profile, oral bioavailability and renal excretion in human (SAD, 14C i.v. microtracer); type: in vivo
Method: as §1
The Phase 1 study was a double-blind, randomized placebo-controlled single ascending dose study in healthy male and female volunteers randomized in a 4:1 ratio. The study enrolled 56 healthy volunteers over multiple weeks for the ascending-dose portion, which included cohorts (n=10/cohort of 8 active and 2 placebo) administered single ascending doses of 50 mg, 100 mg, 200 mg, 400 mg and 600 mg. A sixth cohort (n=6) was administered i.v. microtracer and oral doses of 10 μg and 100 mg, respectively.

**Q.** With `CCOC[C@](C)(C[C@@H](Cc1ccc(-c2cc(Cl)ccc2F)cc1)NC(=O)c1cc(O)no1)C(=O)O` [Compound I, (2S,4R)-5-(5′-Chloro-2′-fluoro-[1,1′-biphenyl]-4-yl)-2-(ethoxymethyl)-4-(3-hydroxyisoxazole-5-carboxamido)-2-methylpentanoic Acid] as the compound, how does the Ki (human neprilysin (NEP)) read?
**A.** < 1 nM

**Q.** What about the renal elimination [1] of the same compound?
**A.** < 1%

**Q.** And the bioavailability ([2]; po, higher doses (30 and 100 mg/kg), three different formulations, data not shown, read-out: mean bioavailability)?
**A.** 55 to 83%

**Q.** And the bioavailability ([2]; male, IV 1 mg/kg, PO 2 mg/kg, read-out: Oral Bioavailability Mean)?
**A.** 41.8%

**Q.** And the AUC(0-t) ([2]; male, IV, 1 mg/kg)?
**A.** 2290 ng·h/mL

**Q.** What about the AUC(0-t) ([2]; male, PO, 2 mg/kg) of the same compound?
**A.** 1910 ng·h/mL

**Q.** What about the “CLlast Mean” value ([2]; IV, 1 mg/kg) of the same compound?
**A.** 6.33 mL/min/kg

**Q.** What about the “CLlast Mean” value ([2]; PO, 2 mg/kg) of the same compound?
**A.** 21.8 mL/min/kg

**Q.** What about the tolerability [3] of the same compound?
**A.** well-tolerated

**Q.** And the bioavailability ([4]; both sexes, in vivo, po, 100 mg, human, SAD clinical trial)?
**A.** ~80%

**Q.** What about the pharmacokinetic profile ([4]; healthy subjects, single doses 50-600 mg) of the same compound?
**A.** dose-proportional

**Q.** What about the “renal elimination (of total administered dose)” value ([4]; human, SAD clinical trial, confirmed by intravenous microtracer) of the same compound?
**A.** < 1%
